Source: ChEMBL document CHEMBL4665869, “New thiazolopyrimidine as anticancer agents: Synthesis, biological evaluation, DNA binding, molecular modeling and ADMET study” (Bioorg Med Chem Lett, 2020)

Legend:
Format in all cases: functional
Conditions in all cases: read-out: GI
[1] = tested on: LOX IMVI; assay: Growth inhibition of human LOX IMVI cells at 10 uM relative to control
[2] = tested on: MDA-MB-468; assay: Growth inhibition of human MDA-MB-468 cells at 10 uM relative to control
[3] = tested on: T47D; assay: Growth inhibition of human T47D cells at 10 uM relative to control
[4] = tested on: CCRF-CEM; assay: Growth inhibition of human CCRF-CEM cells at 10 uM relative to control
[5] = tested on: HL-60(TB); assay: Growth inhibition of human HL-60(TB) cells at 10 uM relative to control
[6] = tested on: K562; assay: Growth inhibition of human K562 cells at 10 uM relative to control
[7] = tested on: MOLT-4; assay: Growth inhibition of human MOLT-4 cells at 10 uM relative to control
[8] = tested on: RPMI-8226; assay: Growth inhibition of human RPMI-8226 cells at 10 uM relative to control
[9] = tested on: SR; assay: Growth inhibition of human SR cells at 10 uM relative to control
[10] = tested on: A549; assay: Growth inhibition of human A549 cells at 10 uM relative to control
[11] = tested on: HOP-62; assay: Growth inhibition of human HOP-62 cells at 10 uM relative to control
[12] = tested on: HOP-92; assay: Growth inhibition of human HOP-92 cells at 10 uM relative to control
[13] = tested on: NCI-H226; assay: Growth inhibition of human NCI-H226 cells at 10 uM relative to control
[14] = tested on: NCI-H23; assay: Growth inhibition of human NCI-H23 cells at 10 uM relative to control
[15] = tested on: NCI-H322M; assay: Growth inhibition of human NCI-H322M cells at 10 uM relative to control
[16] = tested on: NCI-H460; assay: Growth inhibition of human NCI-H460 cells at 10 uM relative to control
[17] = tested on: NCI-H522; assay: Growth inhibition of human NCI-H522 cells at 10 uM relative to control
[18] = tested on: SW-620; assay: Growth inhibition of human SW-620 cells at 10 uM relative to control
[19] = tested on: COLO 205; assay: Growth inhibition of human COLO 205 cells at 10 uM relative to control
[20] = tested on: HCC 2998; assay: Growth inhibition of human HCC 2998 cells at 10 uM relative to control
[21] = tested on: HCT-116; assay: Growth inhibition of human HCT-116 cells at 10 uM relative to control
[22] = tested on: HCT-15; assay: Growth inhibition of human HCT-15 cells at 10 uM relative to control
[23] = tested on: HT-29; assay: Growth inhibition of human HT-29 cells at 10 uM relative to control
[24] = tested on: KM12; assay: Growth inhibition of human KM12 cells at 10 uM relative to control
[25] = tested on: SF-268; assay: Growth inhibition of human SF-268 cells at 10 uM relative to control
[26] = tested on: SF-295; assay: Growth inhibition of human SF-295 cells at 10 uM relative to control
[27] = tested on: SF-539; assay: Growth inhibition of human SF-539 cells at 10 uM relative to control
[28] = tested on: SNB-19; assay: Growth inhibition of human SNB-19 cells at 10 uM relative to control
[29] = tested on: SNB-75; assay: Growth inhibition of human SNB-75 cells at 10 uM relative to control

SMILES: CC1=CN2C(=NC(/C=C/c3ccc(C)cc3)=CC2c2ccc(C)cc2)S1 (centres undefined)
- inhibition of growth at 10 µM [1]: < 10%
- inhibition of growth at 10 µM [2]: 11.3%
- inhibition of growth at 10 µM [3]: < 10%
- inhibition of growth at 10 µM [4]: < 10%
- inhibition of growth at 10 µM [5]: < 10%
- inhibition of growth at 10 µM [6]: < 10%
- inhibition of growth at 10 µM [7]: 12.6%
- inhibition of growth at 10 µM [8]: < 10%
- inhibition of growth at 10 µM [9]: < 10%
- inhibition of growth at 10 µM [10]: < 10%
- inhibition of growth at 10 µM [11]: < 10%
- inhibition of growth at 10 µM [12]: < 10%
- inhibition of growth at 10 µM [13]: < 10%
- inhibition of growth at 10 µM [14]: < 10%
- inhibition of growth at 10 µM [15]: < 10%
- inhibition of growth at 10 µM [16]: < 10%
- inhibition of growth at 10 µM [17]: 10.9%
- inhibition of growth at 10 µM [18]: < 10%
- inhibition of growth at 10 µM [19]: < 10%
- inhibition of growth at 10 µM [20]: < 10%
- inhibition of growth at 10 µM [21]: < 10%
- inhibition of growth at 10 µM [22]: < 10%
- inhibition of growth at 10 µM [23]: < 10%
- inhibition of growth at 10 µM [24]: < 10%
- inhibition of growth at 10 µM [25]: < 10%
- inhibition of growth at 10 µM [26]: < 10%
- inhibition of growth at 10 µM [27]: < 10%
- inhibition of growth at 10 µM [28]: < 10%
- inhibition of growth at 10 µM [29]: 13.7%
